Results as given in patent US20230000813A1, “COMPOUND FOR THE TREATMENT OF BOVINE OR SWINE RESPIRATORY DISEASE” (Intervet Inc., priority 2016, published 2023).
≈ marks a conversion by molar mass, not a printed value.

Assays:
Experiment in all cases: MIC, broth-microdilution (CLSI VET01-A4)
Format in all cases: cell-based
[1] = test system: Pasteurella multocida PM 10775 (080130003051, BRD field isolate); settings: Pasteurella multocida PM 10775
Experimental: (§1) The Minimum inhibitory concentrations (MIC) of compounds according to the invention for a number of veterinary bacterial pathogens were determined by the broth-microdilution method according to CLSI document VET01-A4.
(§2) Microdilution trays containing a doubling dilution series of the test compound were used for the tests. The MIC results were interpreted according to the CLSI documents VET01-S3. The lowest concentration of compound at which no visible growth (i.e. no turbidity) detected by the unaided eye was recorded as the MIC.
(§3) The Minimum inhibitory concentrations (MIC) of compounds according to the invention were determined by the broth-microdilution method according to CLSI document VET01-A4.
(§4) Microdilution trays containing a doubling dilution series of the test compound were used for the tests.
(§5) The MIC results were interpreted according to the CLSI documents VET01-S3. The lowest concentration of compound at which no visible growth (i.e. no turbidity) detected by the unaided eye was recorded as the MIC.

[2] = test system: Mannheimia haemolytica MH 12587 (1071, BRD field isolate, macrolide-resistance: erm+, E+); settings: Mannheimia haemolytica MH 12587, macrolide-resistant
Experimental: as §1, §2, §3, §4, §5

[3] = test system: Mannheimia haemolytica MH 6374 (ATCC 33396, reference strain); settings: Mannheimia haemolytica MH 6374; for MIC: read-out: MIC MH 6374
Experimental: as §1, §2, §3, §4, §5

[4] = test system: Pasteurella multocida PM 12080 (IV102277-0093, BRD field isolate); settings: Pasteurella multocida PM 12080; for MIC: read-out: MIC PM 12080
Experimental: as §1, §2, §3, §4, §5

[5] = test system: Pasteurella multocida PM 6267 (P 2225 (L386), reference strain, mouse infection strain); settings: Pasteurella multocida PM 6267
Experimental: as §1, §2, §3, §4, §5

[6] = test system: Mannheimia haemolytica MH 6357 (M7/2, reference strain, cattle infection strain); settings: Mannheimia haemolytica MH 6357; read-out: MIC MH 6357
Experimental: as §1, §2, §3, §4, §5

[7] = test system: Mannheimia haemolytica MH 10720 (154, BRD field isolate); settings: Mannheimia haemolytica MH 10720
Experimental: as §1, §2, §3, §4, §5

[8] = test system: Mannheimia haemolytica MH 13065 (XB0446-6003.9, BRD field isolate)
Experimental: as §1, §2

[9] = test system: Mannheimia haemolytica MH 13093 (XB0472-6014.1, BRD field isolate)
Experimental: as §1, §2

[10] = test system: Pasteurella multocida PM 6391 (ATCC 43137, reference strain); settings: Pasteurella multocida PM 6391; for MIC: read-out: MIC PM 6391
Experimental: as §1, §2, §3, §4, §5

| SMILES | MIC PM 10775 [1] | MIC MH 12587 [2] [µM] | MIC [3] [µM] | MIC PM 12080 [4] | MIC PM 6267 [5] | MIC [6] [µM] | MIC MH 10720 [7] | MIC [8] [µM] | MIC [9] [µM] | MIC PM 6391 [10] | MIC [10] [µM] | MIC ([7]; read-out: MIC MH 10720) [µM] | MIC [4] [µM] | MIC ([5]; read-out: MIC PM 6267) [µM] | MIC MH 6374 [3] | MIC MH 13065 [8] |
| --- | --- | --- | --- | --- | --- | --- | --- | --- | --- | --- | --- | --- | --- | --- | --- | --- |
| CC(C)C(NC(=O)c1ccc(C#Cc2ccc(CNCC#N)cc2)cc1)C(=O)NO (stereo not drawn) [Compound 346] | <=0.1 μM | 0.8 (≈ 0.324 µg/mL) | 0.4 (≈ 0.162 µg/mL) | <=0.1 μM | <=0.1 μM | 0.4 (≈ 0.162 µg/mL) | <=0.1 μM | 0.2 (≈ 0.0809 µg/mL) | 0.4 (≈ 0.162 µg/mL) | – | – | – | – | – | – | – |
| C[C@@H](O)[C@H](NC(=O)c1ccc(C#Cc2ccc(CN(C)Cc3ccccc3)s2)cc1)C(=O)NO [Compound 196] | <=0.1 μM | 1.6 (≈ 0.764 µg/mL) | 0.8 (≈ 0.382 µg/mL) | <=0.1 μM | <=0.1 μM | 0.4 (≈ 0.191 µg/mL) | <=0.1 μM | 0.8 (≈ 0.382 µg/mL) | 0.8 (≈ 0.382 µg/mL) | <=0.1 μM | – | – | – | – | – | – |
| CC(C)(N)C(NC(=O)c1ccc(C#Cc2ccc(CNCc3cccnc3)cc2)cc1)C(=O)NO (racemic) [C. 364] | <=0.1 μM | 1.6 (≈ 0.754 µg/mL) | 1.6 (≈ 0.754 µg/mL) | <=0.1 μM | <=0.1 μM | 1.6 (≈ 0.754 µg/mL) | – | 0.8 (≈ 0.377 µg/mL) | 1.6 (≈ 0.754 µg/mL) | – | 0.2 (≈ 0.0943 µg/mL) | 0.8 (≈ 0.377 µg/mL) | – | – | – | – |
| CC(C)(N)C(NC(=O)c1ccc(C#Cc2ccc(CNCc3nccs3)cc2)cc1)C(=O)NO (stereo not drawn) [Compound 562] | <=0.1 μM | 1.6 (≈ 0.764 µg/mL) | 0.8 (≈ 0.382 µg/mL) | <=0.1 μM | <=0.1 μM | 0.8 (≈ 0.382 µg/mL) | <=0.1 μM | 0.8 (≈ 0.382 µg/mL) | 0.8 (≈ 0.382 µg/mL) | <=0.1 μM | – | – | – | – | – | – |
| C=CCNCc1ccc(C#Cc2ccc(C(=O)N[C@H](C(=O)NO)[C@@H](C)O)cc2)cn1 [C. 415] | <=0.1 μM | 1.6 (≈ 0.654 µg/mL) | 1.6 (≈ 0.654 µg/mL) | – | – | 0.8 (≈ 0.327 µg/mL) | – | 0.4 (≈ 0.163 µg/mL) | 1.6 (≈ 0.654 µg/mL) | – | 0.2 (≈ 0.0817 µg/mL) | – | 0.4 (≈ 0.163 µg/mL) | 0.2 (≈ 0.0817 µg/mL) | – | – |
| C[C@@H](O)[C@H](NC(=O)c1ccc(C#Cc2ccc(CNCc3ccco3)nc2)cc1)C(=O)NO [Compound 424] | <=0.1 μM | 1.6 (≈ 0.718 µg/mL) | 1.6 (≈ 0.718 µg/mL) | <=0.1 μM | <=0.1 μM | 0.8 (≈ 0.359 µg/mL) | – | 0.4 (≈ 0.179 µg/mL) | 0.8 (≈ 0.359 µg/mL) | <=0.1 μM | – | – | – | – | – | – |
| C[C@@H](O)[C@H](NC(=O)c1ccc(C#Cc2ccc(CNCc3cccs3)nc2)cc1)C(=O)NO [Compound 425] | <=0.1 μM | 0.8 (≈ 0.372 µg/mL) | 0.8 (≈ 0.372 µg/mL) | <=0.1 μM | <=0.1 μM | 0.8 (≈ 0.372 µg/mL) | – | 0.4 (≈ 0.186 µg/mL) | 0.8 (≈ 0.372 µg/mL) | <=0.1 μM | – | – | – | – | – | – |
| C[C@@H](O)[C@H](NC(=O)c1ccc(C#Cc2ccc(CNCc3ccco3)s2)cc1)C(=O)NO [Compound 409] | <=0.1 μM | 0.4 (≈ 0.181 µg/mL) | – | <=0.1 μM | <=0.1 μM | 0.2 (≈ 0.0907 µg/mL) | – | – | 0.2 (≈ 0.0907 µg/mL) | <=0.1 μM | – | – | – | – | <=0.1 μM | <=0.1 μM |
| C[C@@H](O)[C@H](NC(=O)c1ccc(C#Cc2ccc(CNCc3ccncc3)s2)cc1)C(=O)NO [Compound 401] | <=0.1 μM | 0.8 (≈ 0.372 µg/mL) | 0.8 (≈ 0.372 µg/mL) | – | <=0.1 μM | 0.4 (≈ 0.186 µg/mL) | – | 0.4 (≈ 0.186 µg/mL) | 0.8 (≈ 0.372 µg/mL) | – | 0.2 (≈ 0.0929 µg/mL) | – | 0.2 (≈ 0.0929 µg/mL) | – | – | – |
